According to patent US5258383A, “DC-89 derivatives” (priority 1991, dated 1993):

Legend:
ddY-strain male mice = experiment: Acute Toxicity Test; format: in vivo; conditions: intravenous; mortality observed for 14 days
Procedure: A test compound was intravenously administered to ddY-strain male mice each weighing 20±1 g. MLD (the minimum lethal dose) was determined by observing the mortality for 14 days after the administration.

HeLaS3 cells = experiment: Growth Inhibitory Effect against HeLaS3 Cells; format: cell-based; conditions: Homo sapiens, HeLa S3; 72 hours, Neutral Red staining
Procedure: HeLaS3 cells were suspended in a medium comprising MEM medium, 10% fetal calf serum and 2 mM glutamine (hereinafter referred to as medium A) to a concentration of 3×10^4 cells/ml. The cell suspension thus prepared was put into wells of a 96-well microtiter plate in an amount of 0.1 ml per well. After incubation at 37° C. for 20 hours in a CO2 incubator, Compound (I) appropriately diluted with medium A was added to each well in an amount of 0.05 ml.
The cells were further cultured at 37° C. for 72 hours in the CO2 -incubator and the culture supernatant was removed. After the residue was washed once with phosphate buffer saline (PBS), a medium comprising medium A and 0.02% Neutral Red was added in an amount of 0.1 ml per well. Then, the cells were cultured at 37° C. for one hour in the CO2 -incubator, whereby the cells were stained. After removal of the culture supernatant, the residue was washed once with physiological saline. The pigment was extracted with 0.001N hydrochloric acid/30% ethanol and the absorbance of the extract was measured at 550 nm using a microplate reader. The concentration of the test compound at which the growth of the cells is inhibited by 50% (IC50) was calculated by comparing the absorbance of untreated cells with those of the cells treated with the test compound at known concentrations.

Sarcoma 180 tumor = experiment: Therapeutic Effect against Sarcoma 180 Tumor; format: in vivo, male ddY-strain mice; conditions: intravenous, single administration one day after implantation, determined seven days after implantation
Procedure: Five male ddY-strain mice each weighing 18 to 20 g were used for each group as test animals, and 5×10^5 Sarcoma 180 tumor cells were implanted subcutaneously into the animals at the axilla. One day after the implantation, 0.2 ml of physiological saline containing Compound (I) at the concentration indicated in Table 2 was intravenously administered to each mouse. T/C [T: average tumor volume (mm^3) of the group treated with the test compound, C: average tumor volume (mm^3) of the control group which received an intravenous administration of 0.2 ml of physiological saline]was determined seven days after the implant

various bacteria = conditions: against various bacteria / a variety of bacteria; cited from earlier work
melanoma B-16 = conditions: against melanoma B-16; cited from earlier work

SMILES | Acute Toxicity (MLD), minimum lethal dose (ddY-strain male mice) | antibacterial activity (various bacteria) | antitumor activity (melanoma B-16) | other results
COC(=O)c1c(C)[nH]c2c1C13CC1CN(C(=O)/C=C/c1ccc(OC)cc1)C3=CC2=O (stereo not shown) [Compound 2] | 2.0 mg/kg | – | – | IC50 (HeLaS3 cells): 0.18 nM
COC(=O)c1c(C)[nH]c2c(OC(=O)N(C)C)cc3c(c12)C(CBr)CN3C(=O)/C=C/c1ccc(OC)cc1 (stereo not shown) [Compound 3] | > 8.0 mg/kg | – | – | T/C (average tumor volume treated / control) (Sarcoma 180 tumor; 8.0 mg/kg): 0.027; IC50 (HeLaS3 cells): 11 nM
COC(=O)c1c(C)[nH]c2c(OC(=O)N3CCCCC3)cc3c(c12)C(CBr)CN3C(=O)/C=C/c1ccc(OC)cc1 (stereo not shown) [Compound 4] | > 8.0 mg/kg | – | – | IC50 (HeLaS3 cells): < 0.24 nM
COC(=O)c1c(C)[nH]c2c(OC(=O)N3CCCC3)cc3c(c12)C(CBr)CN3C(=O)/C=C/c1ccc(OC)cc1 (stereo not shown) [Compound 5] | > 8.0 mg/kg | – | – | –
COC(=O)c1c(C)[nH]c2c(OC(=O)N3CCN(C)CC3)cc3c(c12)C(CBr)CN3C(=O)/C=C/c1ccc(OC)cc1 (stereo not shown) [Compound 7] | 8.0 mg/kg | – | – | T/C (average tumor volume treated / control) (Sarcoma 180 tumor; 4.0 mg/kg): 0.20
COC(=O)c1c(C)[nH]c2c(OC(=O)N3CCC(N4CCCCC4)CC3)cc3c(c12)C(CBr)CN3C(=O)/C=C/c1ccc(OC)cc1 (stereo not shown) [Compound 9] | 4.0 mg/kg | – | – | T/C (average tumor volume treated / control) (Sarcoma 180 tumor; 4.0 mg/kg): 0.17
COC(=O)c1c(C)[nH]c2c(OC(=O)N3CCN(CC(=O)NC(C)C)CC3)cc3c(c12)C(CBr)CN3C(=O)/C=C/c1ccc(OC)cc1 (stereo not shown) [Compound 11] | > 8.0 mg/kg | – | – | T/C (average tumor volume treated / control) (Sarcoma 180 tumor; 8.0 mg/kg): 0.12
COC(=O)c1c(C)[nH]c2c(OC(=O)Nc3ccccc3)cc3c(c12)C(CBr)CN3C(=O)/C=C/c1ccc(OC)cc1 (stereo not shown) [Compound 12] | 2.0 mg/kg | – | – | T/C (average tumor volume treated / control) (Sarcoma 180 tumor; 2.0 mg/kg): 0.25
COC(=O)c1cc2c([nH]1)C(=O)C=C1N(C(=O)c3cc4cc(OC)c(OC)c(OC)c4[nH]3)CC3CC123 (stereo not shown) [DC113] | – | show an antibacterial activity against a variety of bacteria | exhibit an anti-tumor activity against melanoma B-16 | –
COC(=O)C1(C)NC2=C(C1=O)C13CC1CN(C(=O)c1cc4cc(OC)c(OC)c(OC)c4[nH]1)C3=CC2=O (stereo not shown) [DC-88A] | – | show an antibacterial activity against a variety of bacteria | exhibit an anti-tumor activity against melanoma B-16 | –
COC(=O)C1(C)Nc2c(O)cc3c(c2C1=O)C(CCl)CN3C(=O)c1cc2cc(OC)c(OC)c(OC)c2[nH]1 (stereo not shown) [DC-89A2] | – | exhibit an antibacterial activity against various bacteria | show an antitumor activity against melanoma B-16 | –
COC(=O)C1(C)Nc2c(O)cc3c(c2C1=O)CC(Cl)CN3C(=O)c1cc2cc(OC)c(OC)c(OC)c2[nH]1 (stereo not shown) [DC-89Al] | – | exhibit an antibacterial activity against various bacteria | show an antitumor activity against melanoma B-16 | –
COC(=O)C1(C)Nc2c(O)cc3c(c2C1=O)CC(Br)CN3C(=O)c1cc2cc(OC)c(OC)c(OC)c2[nH]1 (stereo not shown) [DC-89B1] | – | exhibit an antibacterial activity against various bacteria | show an antitumor activity against melanoma B-16 | –
COC(=O)C1(C)Nc2c(O)cc3c(c2C1=O)C(CBr)CN3C(=O)c1cc2cc(OC)c(OC)c(OC)c2[nH]1 (stereo not shown) [DC-89B2] | – | exhibit an antibacterial activity against various bacteria | show an antitumor activity against melanoma B-16 | –
